Experimental data taken from patent US20130203790A1, “SULFUR-CONTAINING COMPOUNDS AS ANTI-PROLIFERATIVE AGENTS” (221076 ONTARIO INC., priority 2011, published 2013).

Columns and labels:
[1] = system: platelets in platelet rich plasma (ADP, collagen and TRAP agonists); experiment: Platelet inhibition assay in platelet rich plasma (light transmission aggregometry, Chrono-Log System); format: cell-based, human; settings: for inhibitory activity observed in PRP: any agonist tested (ADP, collagen, TRAP), compound 10, 25, 50 and 100 μM
Description: (§1) Platelet function studies were performed simultaneously in both whole blood (using whole blood impedance platelet aggregometry with a Multiplate System) and platelet rich plasma (light transmission aggregometry with a Chrono-Log System). Blood was collected from healthy individuals into vacutainers containing 3.2% (w/v) citrate and was used within 3 hours of collection. Platelet rich plasma (“PRP”) was prepared by centrifugation at 170 g for 15 minutes, and the platelet count measured and adjusted to 250×109/L for use in the light transmission aggregometry studies.
(§2) Each compound was tested at final concentrations of 10, 25, 50 and 100 μM. For each test, the compound was diluted 1/100 into the PRP or whole blood to obtain the final concentrations listed. The PRP or whole blood sample was allowed to stir in the aggregometer for 3 minutes prior to agonist addition. One compound was tested each day.
(§3) As a positive control to verify the sensitivity to inhibition of thrombin receptor agonist peptide (TRAP)-mediated aggregation, TRAP-induced aggregations were also done in the presence of eptifibatide, a glycoprotein IIb/IIIa inhibitor (final concentration of 77 μg/mL in PRP and 65 μg/mL in whole blood).
(§4) Materials used included: • The four channel light transmission aggregometer instrument used for the platelet rich plasma studies was from Chrono-Log Corporation. • The ADP and collagen agonists used for platelet rich plasma studies were from Chrono-Log Corporation. • The four channel Multiplate whole blood impedance platelet aggregometer (IPA) was from DiaPharma Group. • The ADP and collagen agonists used for the whole blood studies were provided by DiaPharma Group. The TRAP agonist used in both the whole blood and PRP studies was also obtained from DiaPharma Group.

[2] = system: platelets in whole blood (ADP, collagen and TRAP agonists); experiment: Platelet inhibition assay in whole blood (impedance platelet aggregometry, Multiplate System); format: cell-based, human; settings: for dose dependence of the response in whole blood / reduction in response to agonists in whole blood (anti-platelet effect): all agonists; for dose dependence of the response in whole blood: 10-100 μM; for reduction in response to agonists in whole blood (anti-platelet effect): compound 10-100 μM
Description: as §1, §2, §3, §4

[3] = target: T1, t-PA (degradation of fibrin by tissue plasminogen activator) (Homo sapiens, UniProt P00750); experiment: Fibrinolysis assay, microtiter plate turbidity (clot lysis time); format: biochemical; settings: 500 nM Glu-plasminogen
T1 construct: purchased Genentech
T1 sequence (P00750 36-562): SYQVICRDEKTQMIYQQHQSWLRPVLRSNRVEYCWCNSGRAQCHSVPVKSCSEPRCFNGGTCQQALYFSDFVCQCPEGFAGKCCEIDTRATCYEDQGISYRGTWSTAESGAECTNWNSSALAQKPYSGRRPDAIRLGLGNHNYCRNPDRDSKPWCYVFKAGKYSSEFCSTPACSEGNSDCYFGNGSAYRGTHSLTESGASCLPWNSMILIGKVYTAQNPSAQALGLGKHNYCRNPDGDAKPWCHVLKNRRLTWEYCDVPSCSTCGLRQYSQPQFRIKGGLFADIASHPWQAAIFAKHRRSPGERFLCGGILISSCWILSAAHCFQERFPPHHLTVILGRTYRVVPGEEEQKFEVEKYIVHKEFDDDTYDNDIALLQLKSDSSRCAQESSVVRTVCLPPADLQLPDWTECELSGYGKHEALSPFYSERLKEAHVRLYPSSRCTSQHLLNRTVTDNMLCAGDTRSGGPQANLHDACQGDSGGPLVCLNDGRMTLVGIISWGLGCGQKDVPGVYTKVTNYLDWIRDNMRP
Description: (§5) Coagulation and fibrinolysis were studied simultaneously in a 96-well microtiter plate-based assay system. Varying concentrations of drug in 50 μl buffer or an equivalent volume of saline were added to the wells. To this was added 100 μl of 6 μM fibrinogen, 1 μM Glu-plasminogen and 4 mM CaCl2. Reactions were initiated by addition of 50 μl of buffer containing 2 nM t-PA and 20 nM thrombin. Final concentrations of reagents in the wells were 3 μM fibrinogen, 500 nM Glu-plasminogen, 2 mM CaCl2, 0.05 nM t-PA, 5 nM thrombin and compounds of Formulas (II), (Ill), (IV) or (V) (0-400 μM). As positive controls, hirudin or D-Phe-Pro-Arg chloromethylketone (PPACK) was used in place of the subject compounds. Plates were incubated at 23° C. for 1 h with constant shaking and turbidity was monitored continuously at 405 nm. Clot times and lysis times were determined using instrument soft wave as the times to half maximal increase and decrease in turbidity, respectively. Data are expressed as the mean±SEM of three experiments, each done in triplicate.

[4] = target: T2, thrombin (thrombin-mediated conversion of fibrinogen to fibrin) (Homo sapiens, UniProt P00734); experiment: Coagulation assay, microtiter plate turbidity (clot formation, thrombin clot time); format: biochemical
T2 construct: purchased Enzyme Research Laboratories
Description: as §5, with “[…] […]” for “Final concentrations of reagents in the wells were 3 μM fibrinogen, 500 nM Glu-plasminogen, 2 mM CaCl2, 0.05 nM t-PA, 5 nM thrombin and compounds of Formulas (II), (Ill), (IV) or (V) (0-400 μM). As positive controls, hirudin or D-Phe-Pro-Arg chloromethylketone (PPACK) was used in place of the subject compounds.”

[5] = tested at 0-100 nM, 5 nM thrombin

For “2-methyldisulfanyl-pyrimidine [2-methyldisulfanyl-pyrimidine (V)]”, the “inhibitory activity observed in PRP at highest concentration” value ([1]; all agonists, highest concentration tested (100 μM)) was “surprising inhibitory activity”, the “reduction of platelet response to all agonists in whole blood” value ([2]; 100 μM) was “approximately 50%” and the “dose dependence of the response in whole blood” value (shortened to “dose dependence of the response”) [2] was “positive dose dependent inhibition”.

For CSSc1ccccn1 [2-methyldisulfanyl-pyridine (III), 2-methyldisulfanyl-pyridine], the “inhibitory activity observed in PRP” value [1] was “no inhibitory activity”, the “dose dependence of the response” value [2] was “does not appear to be dose dependent” and the “reduction in response to all agonists in whole blood” value ([2]; not dose dependent (10-100 μM)) was ~25%.

In the case of CSSc1ccc(N)cc1 [4-methyldisulfanyl-phenylamine (IV), 4-methyldisulfanyl-phenylamine], the “inhibitory activity observed in PRP” value [1] is reported as “no inhibitory activity”, the “dose dependence of the response” value [2] is reported as “does not appear to be dose dependent” and the “reduction in response to agonists in whole blood (anti-platelet effect)” value [2] is reported as “Some reduction in response to all agonists”.

In the case of CSSc1ccncc1 [4-methyldisulfanyl-pyridine (II), 4-methyldisulfanyl-pyridine], the “inhibitory activity observed in PRP” value [1] is reported as “no inhibitory activity”, the “dose dependence of the response” value [2] is reported as “does not appear to be dose dependent” and the “reduction in response to agonists in whole blood (anti-platelet effect)” value [2] is reported as “reduction in response to all agonists”.

In the case of “D-Phe-Pro-Arg chloromethylketone [PPACK]”, the “effect on clot lysis times” value [3] is reported as “lysis times were shortened”.

hirudin was tested, and the “effect on clot lysis times” value [3] was “lysis times were shortened”, the “effect on clot formation and lysis profiles” value ([4]; compounds of the invention up to 400 μM, hirudin and PPACK as positive controls, 23° C., turbidity at 405 nm) was “inhibited clot formation and lysis” and the “concentration causing complete inhibition of clotting” value [4, 5] was 25 nM. The “lowest concentration with measurable effect on clotting” value [4, 5] was 6.25 nM.
